Our source for the IC50 values is patent US6316472A, “Heterosubstituted pyridine derivatives as PDE 4 inhibitors” (Merck Frosst Canada & Co., priority 2000, dated 2001).

A word on the IC50: it is the concentration that gives 50% inhibition.

The test addresses T1, GST-Met 248 PDE 4a (Homo sapiens, UniProt P27815).
T1 construct: human recombinant phosphodiesterase IVa (met-248); made in house; host or cells: baculovirus/Sf-9 insect cells
As to the kind of experiment: SPA based PDE Activity Assay (hydrolysis of cAMP to AMP). It is filed as biochemical. As to conditions: 100 nM cAMP; purified GST fusion protein of human recombinant phosphodiesterase IVa (met-248), baculovirus/Sf-9; 30° C., 10 min. On the procedure: SPA based PDE Activity Assay Protocol
Compounds which inhibit the hydrolysis of cAMP to AMP by the type-IV cAMP-specific phosphodiesterases were screened in 96-well plate format as follows:
In a 96 well-plate at 30° C. was added the test compound (dissolved in 2 μl DMSO), […] of substrate buffer containing [2,8-^3 H] adenosine 3',5'-cyclic phosphate (cAMP, 100 nM to 50 μM), 10 mM MgCl2, 1 mM EDTA, 50 mM Tris, pH 7.5. The reaction was initiated by the addition of […] of human recombinant PDE-IV (the amount was controlled so that ~10% product was formed in 10 min.). The reaction was stopped after 10 min. by the addition of 1 mg of PDE-SPA beads (Amersham). The product AMP generated was quantified on a Microbeta 96-well plate counter. The signal in the absence of enzyme was defined as the background. 100% activity was defined as the signal detected in the presence of enzyme and DMSO with the background subtracted. Percentage of inhibition was calculated accordingly. IC50 value was approximated with a non-linear regression fit using the standard 4-parameter/multiple binding sites equation from a ten point titration.
IC50 values shown in Table 7 were determined with 100 nM cAMP using the purified GST fusion protein of the human recombinant phosphodiesterase IVa (met-248) produced from a baculovirus/Sf-9 expression system.

The structures appear in SMILES notation.

T1 sequence (P27815 248-886 limits assumed): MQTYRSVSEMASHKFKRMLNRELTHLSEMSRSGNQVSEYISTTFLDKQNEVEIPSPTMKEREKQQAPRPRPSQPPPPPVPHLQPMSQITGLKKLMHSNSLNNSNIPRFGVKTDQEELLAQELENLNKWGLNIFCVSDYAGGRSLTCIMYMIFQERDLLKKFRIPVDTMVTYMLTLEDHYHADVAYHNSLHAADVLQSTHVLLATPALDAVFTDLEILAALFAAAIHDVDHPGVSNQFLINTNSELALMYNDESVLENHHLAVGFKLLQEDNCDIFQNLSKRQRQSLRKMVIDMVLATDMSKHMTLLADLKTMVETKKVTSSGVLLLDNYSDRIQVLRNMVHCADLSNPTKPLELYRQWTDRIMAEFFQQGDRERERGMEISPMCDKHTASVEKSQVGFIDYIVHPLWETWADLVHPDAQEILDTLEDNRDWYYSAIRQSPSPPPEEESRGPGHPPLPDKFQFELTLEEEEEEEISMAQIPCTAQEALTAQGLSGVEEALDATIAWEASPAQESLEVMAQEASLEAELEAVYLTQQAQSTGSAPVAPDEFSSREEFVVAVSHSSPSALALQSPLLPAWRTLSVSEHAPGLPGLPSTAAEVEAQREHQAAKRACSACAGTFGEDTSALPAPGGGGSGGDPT

As to `NS(=O)(=O)c1cccc(Sc2ccc(C(Cc3ccncc3)c3ccc(OC(F)F)c(OC(F)F)c3)cn2)c1` (centres unmarked) [Example 1, 4-{2-[3,4-Bis(difluoromethoxy)phenyl]-2-{6-[3-(aminosulfonyl)benzenethiol]3-pyridyl}ethyl}pyridine], the IC50 worked out at 5.45 nM. As to `O=[N+]([O-])c1ccc(S(=O)(=O)c2ccc(C(Cc3cc[n+]([O-])cc3)c3ccc(OC(F)F)c(OC(F)F)c3)cn2)cc1` (centres unmarked) [Example 4, 4-{2-[3,4-Bis(difluoromethoxy)phenyl]-2-[6-(4-nitrobenzenesulfonyl)3-pyridyl]ethyl}pyridine-N-oxide], the IC50 came out at 21.2 nM.
